In ChEMBL document CHEMBL4425176, “1,2,3-Triazoles as inhibitors of indoleamine 2,3-dioxygenase 2 (IDO2)” (Bioorg Med Chem Lett, 2016):

What was measured:
Type in all cases: cell-based
HEK-293T = assay: Cytotoxicity against HEK293T cells transfected with human IDO1 or mouse IDO2 assessed as apoptotic cells at 200 uM after 7 hrs or 24 hrs by DAPI staining based cytometric analysis relative to control
[1] = molecular target: T1, Indoleamine 2,3-dioxygenase 2 (Mus musculus) (UniProt Q8R0V5); assay: Inhibition of mouse IDO2 transfected in HEK293T cells assessed as kynurenine formation using L-Trp as substrate at 200 uM after 24 hrs
T1 sequence (whole entry): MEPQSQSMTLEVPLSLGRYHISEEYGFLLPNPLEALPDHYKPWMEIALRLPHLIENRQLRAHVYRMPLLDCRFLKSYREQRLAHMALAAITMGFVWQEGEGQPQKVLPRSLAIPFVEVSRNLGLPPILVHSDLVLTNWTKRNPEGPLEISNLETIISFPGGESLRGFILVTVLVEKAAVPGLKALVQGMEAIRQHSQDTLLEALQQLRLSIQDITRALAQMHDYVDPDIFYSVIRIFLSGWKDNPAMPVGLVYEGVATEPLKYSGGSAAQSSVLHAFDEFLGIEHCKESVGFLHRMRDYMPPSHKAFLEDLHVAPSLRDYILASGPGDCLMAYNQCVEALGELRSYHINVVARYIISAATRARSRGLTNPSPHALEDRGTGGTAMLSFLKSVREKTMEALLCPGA

[2] = molecular target: T2, Indoleamine 2,3-dioxygenase 1 (Homo sapiens, UniProt P14902); assay: Inhibition of human IDO1 transfected in HEK293T cells assessed as kynurenine formation using L-Trp as substrate at 200 uM after 7 hrs
Target sequence in this assay (P14902 whole entry, looked up): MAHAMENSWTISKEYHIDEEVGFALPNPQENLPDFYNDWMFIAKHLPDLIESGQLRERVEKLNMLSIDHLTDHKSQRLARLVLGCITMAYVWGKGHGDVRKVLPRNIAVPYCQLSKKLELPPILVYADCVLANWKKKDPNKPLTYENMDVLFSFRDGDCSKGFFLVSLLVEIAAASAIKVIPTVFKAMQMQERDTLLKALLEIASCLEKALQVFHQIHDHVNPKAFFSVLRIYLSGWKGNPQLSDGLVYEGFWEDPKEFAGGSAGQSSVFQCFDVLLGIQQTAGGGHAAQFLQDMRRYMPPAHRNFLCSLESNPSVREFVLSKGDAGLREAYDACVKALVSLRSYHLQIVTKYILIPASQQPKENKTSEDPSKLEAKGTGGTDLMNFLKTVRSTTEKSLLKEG

[3] = molecular target: T3, Indoleamine 2,3-dioxygenase 2 (Mus musculus, UniProt Q8R0V5); assay: Inhibition of mouse IDO2 transfected in HEK293T cells assessed as kynurenine formation using L-Trp as substrate after 24 hrs
T3 sequence (Q8R0V5 whole entry): T1 sequence (whole entry)

[4] = molecular target: T2, Indoleamine 2,3-dioxygenase 1; assay: Inhibition of human IDO1 transfected in HEK293T cells assessed as kynurenine formation using L-Trp as substrate after 7 hrs
Target sequence in this assay (P14902 whole entry): as the sequence (P14902 whole entry, looked up) above

[5] = Selectivity ratio of IC50 for human IDO1 to IC50 for mouse IDO2 transfected in HEK293T cells

inhibition [1] [%]	inhibition [2] [%]	IC50 [3] [µM]	IC50 [4] [µM]	Compound	Activity (HEK-293T) [%]	Ratio IC50 [5]
94	76	–	–	Clc1cccc(-c2c[nH]nn2)c1CCc1ccccc1	70.8	–
4	83	–	–	Clc1ccccc1-c1cnn[nH]1	–	–
95	77	–	–	c1ccc(-c2c[nH]nn2)c(CCC2CCCCC2)c1	72.3	–
89	74	–	–	c1ccc(-c2c[nH]nn2)c(CCC2CCCC2)c1	35.1	–
80	84	70	105	c1ccc(Cc2ccccc2-c2c[nH]nn2)cc1	0	1.5
47	28	–	–	OC(Cc1ccccc1-c1c[nH]nn1)c1ccccc1 (configuration not stated)	0	–
65	56	110	110	Clc1cccc(-c2c[nH]nn2)c1/C=C/C1CCCCC1	5.4	1
14	96	–	–	Oc1ccccc1-c1c[nH]nn1	0.2	–
97	70	–	–	Clc1ccc(CCc2ccccc2)c(-c2c[nH]nn2)c1	51.6	–
1	93	–	–	c1ccc(-c2cnn[nH]2)cc1	5.3	–
97	32	–	–	Clc1cccc(-c2c[nH]nn2)c1/C=C/c1ccccc1	57.9	–
90	58	51	100	c1ccc(CCc2ccccc2-c2c[nH]nn2)cc1	3.7	2
43	98	120	–	Oc1ccc(Cl)cc1-c1c[nH]nn1	0	–
90	71	–	–	Clc1cccc(-c2c[nH]nn2)c1CCC1CCCC1	21.5	–
2	95	–	–	Clc1cccc(-c2c[nH]nn2)c1	0	–
27	9	–	–	Clc1ccc(-c2c[nH]nn2)cc1	–	–
–	–	–	–	Clc1ccccc1-c1c[nH]nn1	0.2	–
